Experimental data taken from US8829016B2, “Triazole compounds as potential anti-inflammatory agents” (King Saud University, priority 2011, dated 2014).

Columns and labels:
[1] = system: carrageenan-induced rat paw edema; assay: In vivo carrageenan induced rat paw edema assay; parameters: species or system rat (male Sprague-Dawley); conditions: compound intravenously in DMSO one hour before carrageenan, vs vehicle control = 0%
Experimental: (§1) Anti-inflammatory activity was determined by the carrageenan-induced rat paw edema method described by Winter et al., Proc. Soc. Exp. Biol. Med. 1962, 111, 544, using male Sprague-Dawley rats weighing 150 to 200 g (6-8 weeks old). The protocol for the animal experiments performed was approved by the Research Ethics Committee and Animal Care and Use Committee, Govt. of Saudi Arabia. Compounds were administered intravenously in dimethyl sulfoxide solution. Paw edema was induced by intradermal injection of 50 μ. of 1% λ-carrageenan (Sigma, USA) into the subplantar region of the right hind paw, after one hour of compound administration. […] The control group received only the vehicle. Increase in paw volume was compared with that in the control group and percent inhibition was calculated taking the values in the control group as 0% inhibition.
In Vivo Carrageenan Induced Rat Paw Edema Assay
as §1, with “(Winter” for “Winter”, “al.” for “al.,”, “544). Male” for “544, using male”, “old) were used in groups of six animals per group for the experiments. The animals were housed in a room with temperature of 22±2° C. under a 12 h light/dark cycle. They were allowed free access to food and water ad libitum.” for “old).”, “μl” for “μ.”, “X-carrageenan” for “λ-carrageenan”

ovine COX-1 = target: T1, ovine COX-1 (Ovis aries, UniProt P05979); assay: In vitro COX inhibition assay, colorimetric COX (ovine) inhibitor screening kit, COX-1; format: biochemical; conditions: ovine COX-1, colorimetric kit
T1 construct: purchased Cayman Chemicals, USA
T1 sequence (P05979 25-600): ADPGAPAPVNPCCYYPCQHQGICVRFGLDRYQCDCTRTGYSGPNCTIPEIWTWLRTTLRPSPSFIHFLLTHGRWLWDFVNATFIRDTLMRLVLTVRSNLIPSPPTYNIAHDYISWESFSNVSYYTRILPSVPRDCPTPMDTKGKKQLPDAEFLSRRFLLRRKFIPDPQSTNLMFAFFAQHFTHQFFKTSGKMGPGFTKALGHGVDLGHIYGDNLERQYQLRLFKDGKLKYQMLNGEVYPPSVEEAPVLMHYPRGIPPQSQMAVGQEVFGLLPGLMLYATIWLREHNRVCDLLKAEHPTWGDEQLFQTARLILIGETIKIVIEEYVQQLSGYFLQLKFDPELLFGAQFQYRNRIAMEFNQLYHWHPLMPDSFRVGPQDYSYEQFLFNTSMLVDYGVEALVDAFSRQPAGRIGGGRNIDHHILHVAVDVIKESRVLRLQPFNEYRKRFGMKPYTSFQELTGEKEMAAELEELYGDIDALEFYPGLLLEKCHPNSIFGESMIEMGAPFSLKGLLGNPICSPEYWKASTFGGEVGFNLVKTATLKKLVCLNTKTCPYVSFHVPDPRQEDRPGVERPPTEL
Experimental: (§2) Inhibition of the enzymes was determined with the colorimetric COX (ovine) inhibitor screening assay.
(§3) In Vitro COX Inhibition Assay
(§4) The final compounds were evaluated for their ability to inhibit ovine COX-1 and COX-2 enzymes [50% percent inhibition is expressed in molar concentration […]] […] Inhibition of the enzymes was determined with the colorimetric COX (ovine) inhibitor screening assay kit (Cayman Chemicals, USA) using ELISA reader.

ovine COX-2 = target: T2, ovine COX-2 (Ovis aries, UniProt P79208); assay: In vitro COX inhibition assay, colorimetric COX (ovine) inhibitor screening kit, COX-2; format: biochemical; conditions: for IC50: ovine COX-2, colorimetric kit; for Selectivity index (COX-1/COX-2): ratio of IC50 COX-1 / IC50 COX-2
T2 construct: purchased Cayman Chemicals, USA
T2 sequence (P79208 17-603): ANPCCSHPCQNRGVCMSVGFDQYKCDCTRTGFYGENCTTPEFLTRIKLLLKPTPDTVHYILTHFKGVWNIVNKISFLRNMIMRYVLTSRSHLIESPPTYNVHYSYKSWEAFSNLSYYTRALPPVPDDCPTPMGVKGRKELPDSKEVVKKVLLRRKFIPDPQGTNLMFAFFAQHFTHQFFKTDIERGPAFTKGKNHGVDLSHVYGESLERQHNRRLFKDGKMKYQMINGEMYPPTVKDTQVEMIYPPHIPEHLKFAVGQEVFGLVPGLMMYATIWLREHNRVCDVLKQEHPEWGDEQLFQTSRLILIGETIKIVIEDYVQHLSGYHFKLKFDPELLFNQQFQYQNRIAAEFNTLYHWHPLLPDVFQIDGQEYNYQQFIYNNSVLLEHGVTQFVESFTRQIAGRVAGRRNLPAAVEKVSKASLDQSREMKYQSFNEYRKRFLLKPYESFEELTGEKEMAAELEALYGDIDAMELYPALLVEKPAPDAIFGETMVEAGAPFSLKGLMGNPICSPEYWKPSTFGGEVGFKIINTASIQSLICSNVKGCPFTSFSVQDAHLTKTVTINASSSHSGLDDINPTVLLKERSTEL
Experimental: as §2, §3, §4

Compound	AI activity % inhibition at 1 hr (carrageenan paw edema) [1]	AI activity % inhibition at 2 hr (carrageenan paw edema) [1] [%]	melting point [°C]	IC50 (ovine COX-1) [nM]	IC50 (ovine COX-2) [nM]	Selectivity index (COX-1/COX-2) (ovine COX-2)
Cc1ccc(-c2cc(C(F)(F)F)nn2-c2ccc(S(N)(=O)=O)cc2)cc1 [Celecoxib, reference compound]	50 ± 2.1%	71.5 ± 3.7				
C#CCSC1NN=C(c2ccncc2)N1c1ccccc1 (stereo not drawn) [Compound 3, 4-Phenyl-3-(prop-2-ynylthio)-5-pyridine-4-yl-2,4-dihydro-3H-1,2,4-triazole]			151 to 152			
C#CCSc1nnc(-c2ccncc2)n1-c1ccccc1 [Compound 3, 4-Phenyl-3-(prop-2-ynylthio)-5-pyridine-4-yl-2,4-dihydro-3H-1,2,4-triazole]	10 ± 5.4%	12 ± 4.9		7.5	5.3	1.42
CCCC(C)SC1NN=C(c2ccncc2)N1c1ccccc1 (stereo not drawn) [Compound 4, 3-[(Pent-2-yl)thio]-4-phenyl-5-pyridine-4-yl-2,4-dihydro-3H-1,2,4-triazole]			96 to 97			
CCCC(C)Sc1nnc(-c2ccncc2)n1-c1ccccc1 (stereo not drawn) [Compound 4, 3-[(Pent-2-yl)thio]-4-phenyl-5-pyridine-4-yl-2,4-dihydro-3H-1,2,4-triazole]	36 ± 2.1%	50 ± 2.5		3.7	1.4	2.64
C=CCCCSC1NN=C(c2ccncc2)N1c1ccccc1 (stereo not drawn) [Compound 5]			132 to 133			
C=CCCCSc1nnc(-c2ccncc2)n1-c1ccccc1 [Compound 5]	9 ± 1.3%	38 ± 1.8		4.4	2.6	1.69
CCOC(=O)n1nc(-c2ccncc2)n(-c2ccccc2)c1=S [Compound 6, Ethyl[4-phenyl-5-pyridine-4-yl-3-thioxo-2,4-dihydro-3H-1,2,4-triazole-2-yl]carboxylate]	0.0%	5 ± 1.8	231 to 232	9.2	7.8	1.18
OCn1nc(-c2ccncc2)n(-c2ccccc2)c1=S [Compound 7, 2-Hydroxymethyl-4-phenyl-5-pyridine-4-yl-2,4-dihydro-3H-1,2,4-triazole-3-thione]	25 ± 1.8%	66 ± 2.6	277 to 278	3.5	0.8	4.38
CN(C)Cn1nc(-c2ccncc2)n(-c2ccccc2)c1=S [Compound 8, 2-Dimethylaminomethyl-4-phenyl-5-pyridine-4-yl-2,4-dihydro-3H-1,2,4-triazole-3-thione]	51 ± 1.5%	76 ± 2.8	173 to 174	3.1	0.9	3.44
CCN(CC)Cn1nc(-c2ccncc2)n(-c2ccccc2)c1=S [Compound 9, 2-Diethylaminomethyl-4-phenyl-5-pyridine-4-yl-2,4-dihydro-3H-1,2,4-triazole-3-thione]	45 ± 1.1%	66 ± 1.2	216 to 217	3.8	1.1	3.46
S=c1n(CN2CCCC2)nc(-c2ccncc2)n1-c1ccccc1 [Compound 10, 4-Phenyl-5-pyridine-4-yl-2-pyrrolidinylmethyl-2,4-dihydro-3H-1,2,4-triazole-3-thione]	62 ± 3.4%	66 ± 1.5		3.7	0.9	4.11
CN(CCO)Cn1nc(-c2ccncc2)n(-c2ccccc2)c1=S [Compound 11, N-Methyl-N-[(4-phenyl-5-pyridine-4-yl-3-thioxo-2,4-dihydro-3H-1,2,4-triazol-2-y)methyl]-2-aminoethanol]	Zero	16 ± 5.9	173 to 174	4.5	2.1	2.14
S=c1n(CNc2ccc(Br)cc2)nc(-c2ccncc2)n1-c1ccccc1 [Compound 12, 2-[(4-Bromophenylamino)methyl]-4-phenyl-5-pyridine-4-yl-2,4-dihydro-3H-1,2,4-triazole-3-thione]	12.5 ± 1.6%	29 ± 3.8	208 to 209	6.4	3.9	1.64
S=c1n(CNCc2ccc(Cl)cc2)nc(-c2ccncc2)n1-c1ccccc1 [Compound 13, 2-[(4-Chlorobenzylamino)methyl]-4-phenyl-5-pyridine-4-yl-2,4-dihydro-3H-1,2,4-triazole-3-thione]	16 ± 5.7%	19 ± 6.3		8.7	6.8	1.38
